# Laboratory results reported in ChEMBL document CHEMBL1150033, “The squalestatins: effects of changes at the allylic centre in the C1 sidechain” (Bioorg Med Chem Lett, 1994).
# Tested on: not listed separately
# Test: Percent decrease in serum cholesterol levels after intravenous administration of 1 mg/Kg dose for 7 days
# Assay type: functional
# Conditions: not given
row,SMILES,Decrease [%]
1,C=C(CC[C@]12O[C@H](C(=O)O)[C@@](O)(C(=O)O)[C@](C(=O)O)(O1)[C@H](OC(=O)/C=C/[C@@H](C)C[C@@H](C)CC)[C@H]2O)[C@@H](OC(C)=O)[C@H](C)Cc1ccccc1 [ZARAGOZIC ACIDS A],60

# Tested on: not listed separately
# Test: Lipid lowering ability after intravenous administration of 10 mg/Kg single dose
# Assay type: functional
# Conditions: not given
row,SMILES,Lowering [%]
1,C=C(CC[C@]12O[C@H](C(=O)O)[C@@](O)(C(=O)O)[C@](C(=O)O)(O1)[C@H](O)[C@H]2O)[C@@H](OC(C)=O)[C@H](C)Cc1ccccc1,30

# Tested on: not listed separately
# Test: Effective dose required for lipid lowering property in marmosets by oral administration for 7 days
# Assay type: functional
# Conditions: 168 h
row,SMILES,ED50 [mg/kg/day]
1,C=C(CC[C@]12O[C@H](C(=O)O)[C@@](O)(C(=O)O)[C@](C(=O)O)(O1)[C@H](OC(=O)/C=C/[C@@H](C)C[C@@H](C)CC)[C@H]2O)[C@@H](OC(C)=O)[C@H](C)Cc1ccccc1 [ZARAGOZIC ACIDS A],10

# Target: T1, Squalene synthase (Rattus norvegicus, UniProt Q02769)
# T1 sequence (Q02769 whole entry): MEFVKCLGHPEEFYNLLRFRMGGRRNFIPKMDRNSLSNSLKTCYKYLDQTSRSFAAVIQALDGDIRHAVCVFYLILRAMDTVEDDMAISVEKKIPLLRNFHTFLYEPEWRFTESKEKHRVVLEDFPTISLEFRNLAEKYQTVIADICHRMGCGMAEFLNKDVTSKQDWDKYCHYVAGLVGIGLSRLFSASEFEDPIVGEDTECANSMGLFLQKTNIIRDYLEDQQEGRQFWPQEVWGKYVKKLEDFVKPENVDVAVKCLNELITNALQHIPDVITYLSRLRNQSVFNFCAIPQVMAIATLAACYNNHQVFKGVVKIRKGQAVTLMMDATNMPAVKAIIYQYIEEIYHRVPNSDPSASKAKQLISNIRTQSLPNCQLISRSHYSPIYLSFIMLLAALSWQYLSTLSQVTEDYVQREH
# Test: Inhibitory concentration against mammalian Squalene synthase
# Conditions: not given
row,SMILES,IC50 [nM]
1,C#CCO[C@H](C(=C)CC[C@]12O[C@H](C(=O)O)[C@@](O)(C(=O)O)[C@](C(=O)O)(O1)[C@H](O)[C@H]2O)[C@H](C)Cc1ccccc1,1200
2,C=C(CC[C@]12O[C@H](C(=O)O)[C@@](O)(C(=O)O)[C@](C(=O)O)(O1)[C@H](O)[C@H]2O)[C@@H](OC)[C@H](C)Cc1ccccc1,500
3,C=C(CC[C@]12O[C@H](C(=O)O)[C@@](O)(C(=O)O)[C@](C(=O)O)(O1)[C@H](O)[C@H]2O)[C@@H](OCC)[C@H](C)Cc1ccccc1,40
4,C=CCO[C@H](C(=C)CC[C@]12O[C@H](C(=O)O)[C@@](O)(C(=O)O)[C@](C(=O)O)(O1)[C@H](O)[C@H]2O)[C@H](C)Cc1ccccc1,27
5,C=C(CC[C@]12O[C@H](C(=O)O)[C@@](O)(C(=O)O)[C@](C(=O)O)(O1)[C@H](O)[C@H]2O)[C@@H](OC(C)C)[C@H](C)Cc1ccccc1,49
6,C=C(CC[C@]12O[C@H](C(=O)O)[C@@](O)(C(=O)O)[C@](C(=O)O)(O1)[C@H](O)[C@H]2O)[C@@H](OCCC)[C@H](C)Cc1ccccc1,600
7,C=C(CC[C@]12O[C@H](C(=O)O)[C@@](O)(C(=O)O)[C@](C(=O)O)(O1)[C@H](O)[C@H]2O)[C@@H](O)[C@H](C)Cc1ccccc1,252
8,C=C(CC[C@]12O[C@H](C(=O)O)[C@@](O)(C(=O)O)[C@](C(=O)O)(O1)[C@H](O)[C@H]2O)[C@@H](OCc1ccccc1)[C@H](C)Cc1ccccc1,1420
9,C=C(CC[C@]12O[C@H](C(=O)O)[C@@](O)(C(=O)O)[C@](C(=O)O)(O1)[C@H](O)[C@H]2O)[C@H](NC(C)=O)[C@H](C)Cc1ccccc1,> 10000
10,C=C(CC[C@]12O[C@H](C(=O)O)[C@@](O)(C(=O)O)[C@](C(=O)O)(O1)[C@H](O)[C@H]2O)[C@@H](OCC1CC1)[C@H](C)Cc1ccccc1,33
11,CC(=O)NC/C(=C\[C@H](C)Cc1ccccc1)CC[C@]12O[C@H](C(=O)O)[C@@](O)(C(=O)O)[C@](C(=O)O)(O1)[C@H](O)[C@H]2O,> 10000
12,C=C(CC[C@]12O[C@H](C(=O)O)[C@@](O)(C(=O)O)[C@](C(=O)O)(O1)[C@H](O)[C@H]2O)[C@@H](OC(=O)c1ccccc1)[C@H](C)Cc1ccccc1,532
13,C=C(CC[C@]12O[C@H](C(=O)O)[C@@](O)(C(=O)O)[C@](C(=O)O)(O1)[C@H](O)[C@H]2O)[C@@H](NC(C)=O)[C@H](C)Cc1ccccc1,2220
14,CC(=O)NC/C(=C\[C@@H](C)Cc1ccccc1)CC[C@]12O[C@H](C(=O)O)[C@@](O)(C(=O)O)[C@](C(=O)O)(O1)[C@H](O)[C@H]2O,> 10000
15,C=C(CC[C@]12O[C@H](C(=O)O)[C@@](O)(C(=O)O)[C@](C(=O)O)(O1)[C@H](OC(=O)/C=C/[C@@H](C)C[C@@H](C)CC)[C@H]2O)[C@@H](O)[C@H](C)Cc1ccccc1,5
16,C=C(CC[C@]12O[C@H](C(=O)O)[C@@](O)(C(=O)O)[C@](C(=O)O)(O1)[C@H](O)[C@H]2O)[C@@H](OC(=O)C(C)(C)C)[C@H](C)Cc1ccccc1,2290
